How the values were obtained:
[1] = target: Beta-2 adrenergic receptor (Cavia porcellus) (UniProt Q8K4Z4)
[2] = target: T1, Adrenergic receptor alpha-1 (Rattus norvegicus) (UniProt P15823+P23944+P43140); assay: Intrinsic activity against alpha-1 receptor in isolated rat vas deferens; format: tissue-based
[3] = target: Beta-1 adrenergic receptor (Cavia porcellus, UniProt B0FL73)
Description: (§1) Inhibitory activity against beta-1 adrenergic receptor in guinea pig atria is determined

[4] = target: T2, Adrenergic receptor alpha-1 (Rattus norvegicus, UniProt P15823+P23944+P43140)
T2 sequence (P15823 whole entry): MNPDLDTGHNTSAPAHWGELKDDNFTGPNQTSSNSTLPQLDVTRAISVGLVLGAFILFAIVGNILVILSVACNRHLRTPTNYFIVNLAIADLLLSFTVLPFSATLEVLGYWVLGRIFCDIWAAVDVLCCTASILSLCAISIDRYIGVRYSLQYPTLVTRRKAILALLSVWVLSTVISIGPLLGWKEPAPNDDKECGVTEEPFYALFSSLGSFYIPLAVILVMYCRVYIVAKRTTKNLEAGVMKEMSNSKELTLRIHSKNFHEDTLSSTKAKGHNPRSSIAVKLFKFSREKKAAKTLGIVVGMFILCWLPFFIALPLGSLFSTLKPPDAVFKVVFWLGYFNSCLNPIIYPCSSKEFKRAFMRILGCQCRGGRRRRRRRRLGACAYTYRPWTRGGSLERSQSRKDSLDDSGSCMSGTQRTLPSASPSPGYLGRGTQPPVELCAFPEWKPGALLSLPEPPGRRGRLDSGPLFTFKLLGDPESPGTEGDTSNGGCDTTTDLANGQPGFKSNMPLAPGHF
T2 sequence (P23944 whole entry): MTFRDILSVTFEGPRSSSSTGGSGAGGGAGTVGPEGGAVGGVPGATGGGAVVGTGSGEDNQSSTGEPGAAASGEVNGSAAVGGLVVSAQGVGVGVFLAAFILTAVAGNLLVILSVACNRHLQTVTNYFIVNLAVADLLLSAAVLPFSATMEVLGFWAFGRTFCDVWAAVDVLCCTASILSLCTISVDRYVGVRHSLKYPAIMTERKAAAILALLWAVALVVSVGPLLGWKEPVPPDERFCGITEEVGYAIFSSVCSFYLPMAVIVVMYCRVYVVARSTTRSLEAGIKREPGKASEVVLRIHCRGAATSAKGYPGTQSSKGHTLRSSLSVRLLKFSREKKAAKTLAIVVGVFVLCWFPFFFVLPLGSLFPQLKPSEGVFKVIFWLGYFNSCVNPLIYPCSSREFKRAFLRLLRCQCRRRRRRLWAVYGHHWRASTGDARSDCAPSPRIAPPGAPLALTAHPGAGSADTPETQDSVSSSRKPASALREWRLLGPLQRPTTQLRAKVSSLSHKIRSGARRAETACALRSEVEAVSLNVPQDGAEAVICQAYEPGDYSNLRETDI
T2 sequence (P43140 whole entry): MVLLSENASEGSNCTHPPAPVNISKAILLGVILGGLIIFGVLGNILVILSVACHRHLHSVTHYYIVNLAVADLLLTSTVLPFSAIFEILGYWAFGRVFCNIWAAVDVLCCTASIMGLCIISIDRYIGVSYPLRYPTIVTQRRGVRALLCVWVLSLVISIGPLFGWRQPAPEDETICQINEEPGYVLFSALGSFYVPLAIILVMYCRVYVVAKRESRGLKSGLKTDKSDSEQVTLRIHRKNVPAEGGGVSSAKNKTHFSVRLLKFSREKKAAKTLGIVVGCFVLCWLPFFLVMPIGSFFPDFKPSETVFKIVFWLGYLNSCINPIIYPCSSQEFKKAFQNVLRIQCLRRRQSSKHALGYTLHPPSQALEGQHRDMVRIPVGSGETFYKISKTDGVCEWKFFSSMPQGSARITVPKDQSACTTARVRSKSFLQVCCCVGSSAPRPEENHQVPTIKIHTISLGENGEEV

[5] = target: T3, Adrenergic receptor alpha-2 (UniProt P08913+P18825+P18089); details: Cavia porcellus; Ileum
Description: Intrinsic activity against alpha-2 receptor in isolated guinea pig ileum

[6] = target: Beta-2 adrenergic receptor (Cavia porcellus, UniProt Q8K4Z4); assay: Inhibitory activity against beta-2 adrenergic receptor in guinea pig tracheal strip is determined
[7] = target: T1, Adrenergic receptor alpha-1 (Rattus norvegicus); assay: Tested for alpha adrenergic activity against alpha-1 receptor from isolated rat vas deferens; format: tissue-based
[8] = target: Beta-1 adrenergic receptor (Rattus norvegicus, UniProt P18090); assay: biochemical
Description: Tested for binding affinity against beta-1 adrenergic receptor in rat brain using [3H]-CGP- 26505 as radioligand

[9] = target: Beta-2 adrenergic receptor (Bos taurus, UniProt Q28044); assay: Tested for binding affinity against beta-2 adrenergic receptor in bovine lung using [3H]DHA as radioligand
[10] = target: T3, Adrenergic receptor alpha-2; details: Cavia porcellus; Ileum; remark: listed apart in the source
Description: Tested for alpha adrenergic activity against alpha-2 receptor from isolated guinea pig ileum

[11] = target: T4, Adrenergic receptor alpha-2 (Rattus norvegicus, UniProt P22086+P19328+P22909)
T4 sequence (P22086 whole entry): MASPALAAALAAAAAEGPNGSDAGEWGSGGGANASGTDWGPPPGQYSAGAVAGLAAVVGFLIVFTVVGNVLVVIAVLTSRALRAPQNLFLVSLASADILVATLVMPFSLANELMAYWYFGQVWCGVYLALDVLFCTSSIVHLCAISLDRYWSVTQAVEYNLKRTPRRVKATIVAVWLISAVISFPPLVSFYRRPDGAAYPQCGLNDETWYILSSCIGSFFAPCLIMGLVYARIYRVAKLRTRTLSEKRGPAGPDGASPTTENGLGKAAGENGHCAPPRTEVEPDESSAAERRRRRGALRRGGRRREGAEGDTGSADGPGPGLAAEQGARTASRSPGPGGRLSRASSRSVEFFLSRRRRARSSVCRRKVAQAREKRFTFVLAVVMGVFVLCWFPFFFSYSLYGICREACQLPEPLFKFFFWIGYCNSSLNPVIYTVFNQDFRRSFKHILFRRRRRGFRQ
T4 sequence (P19328 whole entry): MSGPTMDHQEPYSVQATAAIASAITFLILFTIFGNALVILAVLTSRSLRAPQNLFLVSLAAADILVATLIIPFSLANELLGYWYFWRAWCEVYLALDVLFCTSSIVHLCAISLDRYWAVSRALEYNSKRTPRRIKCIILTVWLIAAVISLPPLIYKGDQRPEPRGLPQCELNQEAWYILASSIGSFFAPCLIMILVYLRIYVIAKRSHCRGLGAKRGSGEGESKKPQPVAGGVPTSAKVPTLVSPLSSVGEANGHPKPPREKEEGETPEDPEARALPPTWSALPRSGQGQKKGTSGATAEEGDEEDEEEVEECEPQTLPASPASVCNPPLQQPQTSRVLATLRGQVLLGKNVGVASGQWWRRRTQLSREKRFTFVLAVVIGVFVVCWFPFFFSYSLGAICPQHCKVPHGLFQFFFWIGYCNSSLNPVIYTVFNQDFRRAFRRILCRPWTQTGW
T4 sequence (P22909 whole entry): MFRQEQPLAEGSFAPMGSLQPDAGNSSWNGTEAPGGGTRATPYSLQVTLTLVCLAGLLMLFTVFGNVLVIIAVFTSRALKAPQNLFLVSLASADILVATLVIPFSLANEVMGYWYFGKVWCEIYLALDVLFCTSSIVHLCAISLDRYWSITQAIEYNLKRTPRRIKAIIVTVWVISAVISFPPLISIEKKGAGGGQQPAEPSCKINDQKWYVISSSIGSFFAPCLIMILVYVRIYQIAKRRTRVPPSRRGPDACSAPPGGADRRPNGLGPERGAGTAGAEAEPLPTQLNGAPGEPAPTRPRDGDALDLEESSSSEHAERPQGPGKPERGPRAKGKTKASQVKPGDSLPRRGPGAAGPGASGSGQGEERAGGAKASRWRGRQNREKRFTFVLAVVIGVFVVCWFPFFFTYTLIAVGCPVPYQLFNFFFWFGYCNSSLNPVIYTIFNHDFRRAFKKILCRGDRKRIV

[12] = target: Beta-2 adrenergic receptor (Cavia porcellus) (UniProt Q8K4Z4); remark: listed apart in the source
[13] = target: T2, Adrenergic receptor alpha-1; assay: -log IC50 value against alpha-1 receptor in rat vas deferens; format: tissue-based
[14] = target: Beta-1 adrenergic receptor (Cavia porcellus) (UniProt B0FL73); assay: Intrinsic activity against beta-1 receptor in isolated guinea pig atria
[15] = target: Beta-1 adrenergic receptor (Cavia porcellus) (UniProt B0FL73)
Description: as §1

Sequence of Beta-2 adrenergic receptor (Cavia porcellus) (Q8K4Z4 whole entry, looked up): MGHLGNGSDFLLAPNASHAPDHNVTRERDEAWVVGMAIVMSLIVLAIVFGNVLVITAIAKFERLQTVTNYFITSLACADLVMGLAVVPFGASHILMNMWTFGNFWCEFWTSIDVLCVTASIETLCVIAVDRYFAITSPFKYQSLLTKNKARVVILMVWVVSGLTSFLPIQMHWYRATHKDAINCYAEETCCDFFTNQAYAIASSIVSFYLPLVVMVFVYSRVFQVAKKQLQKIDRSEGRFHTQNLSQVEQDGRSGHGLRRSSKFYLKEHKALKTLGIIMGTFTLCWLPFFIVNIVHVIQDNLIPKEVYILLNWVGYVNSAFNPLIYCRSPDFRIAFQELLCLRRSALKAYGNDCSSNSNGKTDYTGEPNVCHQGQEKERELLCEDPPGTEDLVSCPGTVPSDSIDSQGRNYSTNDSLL
Sequence of Beta-2 adrenergic receptor (Cavia porcellus, UniProt Q8K4Z4) (Q8K4Z4 whole entry): as the sequence (Q8K4Z4 whole entry, looked up) above
T3 sequence (P08913 whole entry, looked up): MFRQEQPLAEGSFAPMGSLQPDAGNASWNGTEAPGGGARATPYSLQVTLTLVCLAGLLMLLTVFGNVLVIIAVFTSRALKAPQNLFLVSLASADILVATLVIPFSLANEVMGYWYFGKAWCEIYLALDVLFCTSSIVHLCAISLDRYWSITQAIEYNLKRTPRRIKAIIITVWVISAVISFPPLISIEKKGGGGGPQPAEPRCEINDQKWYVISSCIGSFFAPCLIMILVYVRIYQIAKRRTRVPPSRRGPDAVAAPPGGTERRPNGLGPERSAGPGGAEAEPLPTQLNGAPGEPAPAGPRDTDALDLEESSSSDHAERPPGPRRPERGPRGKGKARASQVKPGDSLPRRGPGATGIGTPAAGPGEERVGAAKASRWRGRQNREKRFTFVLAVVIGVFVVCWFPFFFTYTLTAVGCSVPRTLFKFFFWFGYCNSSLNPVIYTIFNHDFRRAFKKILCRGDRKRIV
T3 sequence (P18089 whole entry, looked up): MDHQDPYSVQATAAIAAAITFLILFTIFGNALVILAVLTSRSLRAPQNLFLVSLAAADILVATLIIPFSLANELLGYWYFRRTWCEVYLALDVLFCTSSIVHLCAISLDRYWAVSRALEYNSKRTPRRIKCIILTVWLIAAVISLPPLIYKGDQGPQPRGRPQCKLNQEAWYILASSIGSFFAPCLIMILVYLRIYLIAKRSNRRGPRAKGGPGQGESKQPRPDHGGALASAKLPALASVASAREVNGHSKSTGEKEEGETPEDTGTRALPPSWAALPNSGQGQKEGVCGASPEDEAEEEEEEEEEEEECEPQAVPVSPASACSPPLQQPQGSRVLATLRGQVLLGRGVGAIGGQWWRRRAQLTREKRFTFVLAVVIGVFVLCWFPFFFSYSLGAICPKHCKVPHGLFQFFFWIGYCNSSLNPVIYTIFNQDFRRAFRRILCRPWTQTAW
T3 sequence (P18825 whole entry, looked up): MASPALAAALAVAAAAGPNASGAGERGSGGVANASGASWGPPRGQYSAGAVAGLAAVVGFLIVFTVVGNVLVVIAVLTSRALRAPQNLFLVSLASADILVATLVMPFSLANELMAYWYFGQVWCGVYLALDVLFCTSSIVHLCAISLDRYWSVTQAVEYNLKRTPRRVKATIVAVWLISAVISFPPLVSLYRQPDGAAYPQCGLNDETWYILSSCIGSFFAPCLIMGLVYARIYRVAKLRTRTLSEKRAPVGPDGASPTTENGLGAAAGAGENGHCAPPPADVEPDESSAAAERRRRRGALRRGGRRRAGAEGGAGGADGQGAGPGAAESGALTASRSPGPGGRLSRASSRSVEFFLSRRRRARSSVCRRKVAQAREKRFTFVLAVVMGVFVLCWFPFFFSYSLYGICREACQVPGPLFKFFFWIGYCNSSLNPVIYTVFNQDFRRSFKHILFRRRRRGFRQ
Sequence of Beta-1 adrenergic receptor (Cavia porcellus, UniProt B0FL73) (B0FL73 whole entry): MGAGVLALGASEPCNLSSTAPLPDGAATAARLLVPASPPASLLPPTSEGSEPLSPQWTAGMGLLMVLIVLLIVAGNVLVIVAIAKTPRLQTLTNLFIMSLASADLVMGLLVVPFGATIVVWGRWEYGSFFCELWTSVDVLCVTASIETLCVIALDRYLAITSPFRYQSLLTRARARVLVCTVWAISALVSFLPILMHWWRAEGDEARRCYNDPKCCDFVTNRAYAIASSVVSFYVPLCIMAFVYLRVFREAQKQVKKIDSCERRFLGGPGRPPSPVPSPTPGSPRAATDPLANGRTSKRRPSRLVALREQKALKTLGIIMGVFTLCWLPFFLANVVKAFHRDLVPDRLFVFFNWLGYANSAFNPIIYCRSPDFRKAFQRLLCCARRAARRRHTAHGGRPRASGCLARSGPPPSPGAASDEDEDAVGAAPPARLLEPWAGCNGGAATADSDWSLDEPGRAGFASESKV
Sequence of Beta-2 adrenergic receptor (Bos taurus, UniProt Q28044) (Q28044 whole entry): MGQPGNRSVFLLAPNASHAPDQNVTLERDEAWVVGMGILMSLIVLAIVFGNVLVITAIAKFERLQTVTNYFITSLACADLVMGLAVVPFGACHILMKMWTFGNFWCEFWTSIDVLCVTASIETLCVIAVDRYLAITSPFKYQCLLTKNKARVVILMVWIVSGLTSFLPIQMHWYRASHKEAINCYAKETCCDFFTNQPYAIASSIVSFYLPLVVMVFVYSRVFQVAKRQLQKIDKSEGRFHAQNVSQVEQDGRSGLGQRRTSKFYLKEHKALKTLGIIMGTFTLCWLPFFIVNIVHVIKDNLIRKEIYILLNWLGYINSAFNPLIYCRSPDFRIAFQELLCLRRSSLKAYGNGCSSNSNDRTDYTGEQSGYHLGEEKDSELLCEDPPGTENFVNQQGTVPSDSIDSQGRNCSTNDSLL
Sequence of Beta-1 adrenergic receptor (Rattus norvegicus, UniProt P18090) (P18090 whole entry): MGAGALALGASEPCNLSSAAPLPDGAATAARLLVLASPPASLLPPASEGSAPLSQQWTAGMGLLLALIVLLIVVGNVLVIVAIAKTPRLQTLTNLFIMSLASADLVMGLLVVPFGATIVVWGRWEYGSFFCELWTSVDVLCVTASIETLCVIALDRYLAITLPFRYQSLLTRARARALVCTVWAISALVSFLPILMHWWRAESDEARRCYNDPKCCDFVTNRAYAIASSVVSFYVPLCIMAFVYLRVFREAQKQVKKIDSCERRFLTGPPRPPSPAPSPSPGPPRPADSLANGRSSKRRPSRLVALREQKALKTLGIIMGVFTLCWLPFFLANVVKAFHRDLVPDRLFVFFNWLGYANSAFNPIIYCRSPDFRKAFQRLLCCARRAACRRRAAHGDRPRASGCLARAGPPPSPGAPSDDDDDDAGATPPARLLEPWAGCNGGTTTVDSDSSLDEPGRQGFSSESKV
Sequence of Beta-1 adrenergic receptor (Cavia porcellus) (B0FL73 1-467): as the sequence (B0FL73 whole entry) above

CC(C)NCC(O)c1ccc(O)c(O)c1 (stereo unspecified)
IA [1]: 1 | IA [2]: 0.83

NCC1OCCc2cc(O)c(O)cc21 (stereo unspecified)
IC50 [3]: 6.76 µM | Ki [4]: 60.3 µM | IA [5]: 0.73 | IC50 [6]: 30.2 µM | pD2 [7]: 3.97 | Ki [8]: 3.45 µM | Ki [9]: 28.8 µM | pD2 [10]: 5.45 | Ki [11]: 1.28 µM | IA [2]: 0.42

CC(C)NCC1OCCc2cc(O)c(O)cc21 (stereo unspecified)
IC50 [3]: 33.9 µM | Ki [4]: 26 µM | IA [5]: 0.72 | IC50 [6]: 5.5 µM | Ki [8]: 1.49 µM | Ki [9]: 4.9 µM | pD2 [10]: 4.56 | Ki [11]: 4.12 µM

NCC1OCCc2c1ccc(O)c2O (stereo unspecified)
IC50 [3]: 66.1 µM | Ki [4]: 42.2 µM | IA [5]: 1 | IC50 [6]: > 316 µM | pD2 [7]: 4.69 | Ki [8]: 40.3 µM | Ki [9]: 49.9 µM | Ki [11]: 0.0074 µM | IA [2]: 1.03

CC(C)NCC1OCCc2c1ccc(O)c2O (stereo unspecified)
IC50 [3]: > 316 µM | Ki [4]: 21.5 µM | IA [5]: 1 | pD2 [12]: < 3.5 | Ki [8]: 28.8 µM | Ki [9]: 14.9 µM | -Log IC50 [13]: < 3.5 | pD2 [10]: 5.26 | Ki [11]: 1.78 µM

NC[C@H](O)c1ccc(O)c(O)c1
IA [5]: 1 | IA [14]: 1 | pD2 [12]: 6.03 | pD2 [7]: 5.12 | IA [1]: 1 | pD2 [15]: 6.32 | pD2 [10]: 6.56 | IA [2]: 1
